# Measurements published in patent publication US12590123B2, “Compounds and methods for treating cancer, viral infections, and allergic conditions” (Washington University, priority 2019, dated 2026).
# pEC50, pIC50: −log10 of the molar value. Like-named read-outs stand apart in the source and are kept apart here. Starred links: 1 amine or outer side, 2 acyl side, 3 side chain; linkers in the order of their positions; H or OH if unused. Non-standard residues stand in square brackets, D forms with d. Residues, ends and D or L forms follow the SMILES beside them. X6 = N=C(N)NCCC[C@H](N[*:1])C(=O)c1nc2ccc(C(=O)[*:2])cc2s1
# Experiments:
# KLK5 = target: T1, KLK5 (Homo sapiens, UniProt Q9Y337); assay: Fluorescent kinetic enzyme inhibitor assay of KLK5 (Boc-VPR-AMC); type: biochemical; settings: Table 4; 7.5 nM KLK5, 100 μM substrate
# T1 construct: purchased R&D Systems 1108-SE-010
# T1 sequence (Q9Y337 23-293): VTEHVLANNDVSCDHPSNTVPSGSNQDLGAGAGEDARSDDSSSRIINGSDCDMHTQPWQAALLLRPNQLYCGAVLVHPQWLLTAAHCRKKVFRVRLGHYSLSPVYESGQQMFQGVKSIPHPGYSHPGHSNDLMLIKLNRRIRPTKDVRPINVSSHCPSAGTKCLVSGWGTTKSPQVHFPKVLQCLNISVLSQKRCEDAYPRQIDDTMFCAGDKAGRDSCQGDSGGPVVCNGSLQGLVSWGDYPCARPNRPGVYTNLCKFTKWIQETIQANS
# Procedure: Fluorescent Kinetic Enzyme Inhibitor Assay of KLK5: Inhibitors (11-pt serial dilutions, 0-20 μM final concentration in reaction) were serially diluted in DMSO (2% DMSO final concentration) and then mixed with KLK5 (#1108-SE-010, R&D Systems, Minneapolis, Minnesota) in black 384 well plates (Corning #3575. Corning, NY). The final assay concentration for KLK5 is 7.5 nM in TNC buffer (25 mM Tris, 150 mM NaCl, 5 mM CaCl2), 0.01% Triton X-100, pH 8). After thirty minutes incubation at room temperature, Boc-VPR-AMC substrate was added. The final substrate concentrations for assay is 100 μM. Changes in fluorescence (excitation at 380 nm and emission at 460 nm) were measured at room temperature over time in a Biotek Synergy 2 plate reader (Winnoski, VT). Using GraphPad Prism version 6.04 software program, (GraphPad Software, San Diego, CA, graphpad.com), a four parameter curve fit was used to determine the inhibitor IC50s from a plot of the mean reaction velocity versus the inhibitor concentration. The IC50 values represent the average of three or more separate experimental determinations.
# activated hepsin = target: T2, activated hepsin (Homo sapiens, UniProt P05981); assay: Fluorescent kinetic enzyme assay of hepsin activity (Boc-QAR-AMC); type: biochemical; settings: for IC50: Table 2, read-out: Hepsin (IC50 nM); for pIC50: Table 6, read-out: Hepsin IC50
# T2 construct: purchased R&D Systems 4776-SE-010
# T2 sequence (P05981 163-417 limits assumed): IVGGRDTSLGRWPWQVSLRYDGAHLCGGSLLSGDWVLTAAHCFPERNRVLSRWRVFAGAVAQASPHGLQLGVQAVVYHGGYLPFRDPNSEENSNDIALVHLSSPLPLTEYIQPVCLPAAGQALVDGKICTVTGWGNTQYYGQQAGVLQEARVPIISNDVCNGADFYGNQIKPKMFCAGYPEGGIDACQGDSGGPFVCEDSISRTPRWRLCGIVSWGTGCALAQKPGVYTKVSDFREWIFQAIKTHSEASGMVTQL
# T2 sequence (P05981 1-162 partner limits assumed): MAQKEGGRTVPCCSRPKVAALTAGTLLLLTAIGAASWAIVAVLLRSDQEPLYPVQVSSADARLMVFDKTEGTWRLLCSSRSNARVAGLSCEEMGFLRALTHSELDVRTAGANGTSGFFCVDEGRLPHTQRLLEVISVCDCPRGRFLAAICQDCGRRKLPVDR
# Procedure: (§4) After thirty minutes of incubation at room temperature, Boc-QLR-AMC substrate was added (HGFA assay) or Boc-QAR-AMC substrate (matriptase, and hepsin assays). […] From a plot of the mean reaction velocity versus the inhibitor concentration, a non-linear four parameter curve fit was performed using GraphPad Prism (GraphPad Software, San Diego, CA) to determine inhibitor IC50s. The IC50 values were determined from the average of three or more separate experimental determinations. Apparent Ki values were calculated using the Cheng and Prusoff equation (Ki=IC50/(1+[S]/Km).
# (§5) Inhibitors were pre-incubated with protease followed by the addition of the substrate. Inhibition of substrate proteolysis derived fluorescence was monitored kinetically over a period of one hour.
# recombinant thrombin = recombinant thrombin (Homo sapiens, UniProt P00734); assay: Chromogenic kinetic enzyme assay of thrombin (S2238); type: biochemical; settings: Table 2; chromogenic assay; read-out: Thrombin* (IC50 nM)
# Procedure: (§1) Using GraphPad Prism (GraphPad Software, San Diego, CA), a four-parameter curve fit was used to determine the inhibitor IC50s from a plot of the mean reaction velocity versus the inhibitor concentration. The IC50 values represent the average of three or more separate experimental determinations. Apparent Ki values were calculated from the IC50 values using the Cheng and Prusoff equation (Ki=IC50/(1+[S]/Km).
# (§2) Using GraphPad Prism version 6.04 software program, (GraphPad Software, San Diego, CA, graphpad.com), a four parameter curve fit was used to determine the inhibitor IC50s from a plot of the mean reaction velocity versus the inhibitor concentration.
# (§3) Fluorescent inhibitor and chromogenic proteolytic assays were performed for compounds prepared in Example 11 in general accordance with the procedures described in Example 9.
# [1] = system: VSVpp (SARS-2-S) entry into TMPRSS2-positive Calu-3 cells
# [2] = target: T3, recombinant HGFA serine protease domain (Homo sapiens, UniProt Q04756); assay: Fluorescent kinetic enzyme assay of HGFA activity (Boc-QLR-AMC); type: biochemical; settings: Table 2; read-out: HGFA (IC50 nM)
# T3 construct: His6 tag (N); seven amino acid spacer plus TEV cleavage site (N); made in house; host or cells: High 5 insect cells (baculovirus; Sf9 for virus production)
# T3 sequence (Q04756 373-655): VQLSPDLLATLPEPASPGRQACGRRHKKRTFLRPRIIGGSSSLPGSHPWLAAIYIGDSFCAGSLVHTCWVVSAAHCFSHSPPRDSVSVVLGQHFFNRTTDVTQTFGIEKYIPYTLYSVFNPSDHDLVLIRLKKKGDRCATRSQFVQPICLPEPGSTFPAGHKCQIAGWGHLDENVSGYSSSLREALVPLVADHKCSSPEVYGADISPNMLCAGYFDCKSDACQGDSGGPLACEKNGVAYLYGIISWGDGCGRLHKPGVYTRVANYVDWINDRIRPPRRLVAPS
# In short: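 His-tagged HGFA protease domain from baculovirus-infected High 5 cells, 6.25 nM in pH 8 Tris/NaCl/5 mM CaCl2/0.01% Triton X-100 with 2% DMSO. IC50 from four-parameter velocity fit (≥3 runs); apparent Ki by Cheng–Prusoff.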
# matriptase = target: T4, matriptase (Homo sapiens, UniProt Q9Y5Y6); assay: Fluorescent kinetic enzyme assay of matriptase activity (Boc-QAR-AMC); type: biochemical; settings: Table 2; read-out: Matriptase (IC50 nM)
# T4 construct: purchased R&D Systems 3946-SE-010
# T4 sequence (Q9Y5Y6 615-855 limits assumed): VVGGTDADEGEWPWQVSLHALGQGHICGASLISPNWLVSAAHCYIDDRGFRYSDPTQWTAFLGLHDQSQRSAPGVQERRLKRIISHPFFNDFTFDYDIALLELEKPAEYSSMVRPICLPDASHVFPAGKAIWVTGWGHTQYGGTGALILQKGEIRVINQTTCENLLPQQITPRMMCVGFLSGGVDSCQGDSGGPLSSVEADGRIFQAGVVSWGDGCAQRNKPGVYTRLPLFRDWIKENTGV
# Procedure: as §4, §5
# Factor Xa = Factor Xa (Homo sapiens, UniProt P00742); assay: Chromogenic kinetic enzyme assay of Factor Xa (S2222); type: biochemical; settings: Table 2; chromogenic assay; read-out: Factor Xa* (IC50 nM)
# Chain of Factor Xa (P00742 235-488 limits assumed): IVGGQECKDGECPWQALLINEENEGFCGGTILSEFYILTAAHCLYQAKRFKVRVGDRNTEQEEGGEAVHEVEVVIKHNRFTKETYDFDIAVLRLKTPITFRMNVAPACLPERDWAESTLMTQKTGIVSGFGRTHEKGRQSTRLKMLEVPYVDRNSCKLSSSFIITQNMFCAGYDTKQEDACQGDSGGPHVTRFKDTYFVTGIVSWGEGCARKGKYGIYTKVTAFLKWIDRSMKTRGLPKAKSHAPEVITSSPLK
# Chain of Factor Xa (P00742 41-179 partner limits assumed): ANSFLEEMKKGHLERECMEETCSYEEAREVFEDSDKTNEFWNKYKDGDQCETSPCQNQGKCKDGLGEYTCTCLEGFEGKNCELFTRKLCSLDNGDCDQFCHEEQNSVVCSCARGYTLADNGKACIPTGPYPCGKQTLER
# Procedure: as §1, §2, §3
Structure (SMILES),pIC50 (KLK5),IC50 (activated hepsin),pEC50 [1],IC50 (matriptase),other results
"CC(=O)N[C@@H](Cc1c[nH]c2ccccc12)C(=O)N[C@@H](Cc1ccccc1)C(=O)N[C@@H](CCCNC(=N)N)C(=O)c1nc2ccccc2s1 [AcWFRkbt, Ac-WFR-kbt]",< 4.70,–,–,–,–
"CC(=O)N[C@@H](CC(C)C)C(=O)N[C@@H](CC(C)C)C(=O)N[C@H](C=O)CCCNC(=N)N [Leupeptin, reference compound]",< 4.70,–,–,–,–
CC(=O)N[C@H]1CC(=O)NCCCC[C@@H](C(=O)N[C@@H](CCCNC(=N)N)B(O)O)NC(=O)[C@H](CC(C)C)NC1=O [MM2030],4.74,–,–,–,–
"CC(=O)N[C@H]1CC(=O)NCCCC[C@@H](C(=O)N[C@@H](CCCNC(=N)N)C(=O)c2nc3ccccc3s2)NC(=O)[C@H](CC(C)C)NC1=O [VD2173, (3S,6S,14S)-6-acetamido-N—((S)-1-(benzo[d]thiazol-2-yl)-5-guanidino-1-oxopentan-2-yl)-3-isobutyl-2,5,8-trioxo-1,4,9-triazacyclotetradecane-14-carboxamide]",–,8.4 nM,6.98,–,pIC50 (activated hepsin): 8.00; IC50 (recombinant thrombin): 699 nM
"CC(=O)N[C@H]1CC(=O)NCCCC[C@@H](C(=O)N[C@@H](CCCNC(=N)N)C(=O)c2nc3ccccc3s2)NC(=O)[C@H](CCC(N)=O)NC1=O [VD3152, (3S,6S,14S)-6-acetamido-3-(3-amino-3-oxopropyl)-N—((S)-1-(benzo[d]thiazol-2-yl)-5-guanidino-1-oxopentan-2-yl)-2,5,8-trioxo-1,4,9-triazacyclotetradecane-14-carboxamide]",–,–,6.86,–,Calu-3 EC50 (nM) [1]: almost equivalent activity
"CSCC[C@@H]1NC(=O)[C@@H](NC(C)=O)CC(=O)NCCCC[C@@H](C(=O)N[C@@H](CCCNC(=N)N)C(=O)c2nc3ccccc3s2)NC1=O [VD3173, (3S,6S,14S)-6-acetamido-N—((S)-1-(benzo[d]thiazol-2-yl)-5-guanidino-1-oxopentan-2-yl)-3-(2-(methylthio)ethyl)-2,5,8-trioxo-1,4,9-triazacyclotetradecane-14-carboxamide]",–,–,6.92,–,IC50 (recombinant thrombin): > 20000 nM; Calu-3 EC50 (nM) [1]: almost equivalent activity
"CC(=O)N[C@H]1Cc2ccc(cc2)OC/C=C\C[C@@H](C(=O)N[C@@H](CCCNC(=N)N)C(=O)c2nc3ccccc3s2)NC(=O)[C@H](CC(C)C)NC1=O [VD4010, (7S,10S,13S,Z)-13-acetamido-N—((S)-1-(benzo[d]thiazol-2-yl)-5-guanidino-1-oxopentan-2-yl)-10-isobutyl-9,12-dioxo-2-oxa-8,11-diaza-1(1,4)-benzenacyclotetradecaphan-4-ene-7-carboxamide]",5.74,0.141 nM,–,3.24 nM,IC50 [2]: 11.1 nM; IC50 (Factor Xa): 122 nM
"CC(=O)N[C@H]1C/C=C\COc2ccc(cc2)C[C@@H](C(=O)N[C@@H](CCCNC(=N)N)C(=O)c2nc3ccccc3s2)NC(=O)[C@H](CC(C)C)NC1=O [VD4051, (7S,10S,13S,E)-7-acetamido-N—((S)-1-(benzo[d]thiazol-2-yl)-5-guanidino-1-oxopentan-2-yl)-10-isobutyl-8,11-dioxo-2-oxa-9,12-diaza-1(1,4)-benzenacyclotetradecaphan-4-ene-13-carboxamide]",–,102 nM,6.25,80.2 nM,IC50 (Factor Xa): 8810 nM
"CC(=O)N[C@H]1Cc2ccc(cc2)OCCCC[C@@H](C(=O)N[C@@H](CCCNC(=N)N)C(=O)c2nc3ccccc3s2)NC(=O)[C@H](CC(C)C)NC1=O [VD4072, (7S,10S,13S)-13-acetamido-N—((S)-1-(benzo[d]thiazol-2-yl)-5-guanidino-1-oxopentan-2-yl)-10-isobutyl-9,12-dioxo-2-oxa-8,11-diaza-1(1,4)-benzenacyclotetradecaphane-7-carboxamide]",5.28,0.175 nM,–,7.76 nM,IC50 [2]: 7.99 nM
"CC(=O)N[C@H]1Cc2cn(nn2)CCCC[C@H](C(=O)N[C@@H](CCCNC(=N)N)C(=O)c2nc3ccccc3s2)NC(=O)[C@H](CC(C)C)NC1=O [VD4090, (3S,6S,9R,Z)-3-acetamido-N—((S)-1-(benzo[d]thiazol-2-yl)-5-guanidino-1-oxopentan-2-yl)-6-isobutyl-4,7-dioxo-11H-5,8-diaza-1(4,1)-triazolacyclotridecaphane-9-carboxamide]",5.03,14.1 nM,–,39.1 nM,–
"CC(=O)N[C@H]1Cc2ccc(cc2)OCCCC[C@@H](C(=O)N[C@@H](CCCNC(=N)N)C(=O)c2nc3ccccc3s2)NC(=O)[C@H](Cc2ccccc2)NC1=O [VD4111, (7S,10S,13S)-13-acetamido-N—((S)-1-(benzo[d]thiazol-2-yl)-5-guanidino-1-oxopentan-2-yl)-10-benzyl-9,12-dioxo-2-oxa-8,11-diaza-1(1,4)-benzenacyclotetradecaphane-7-carboxamide]",6.19,0.331 nM,–,17 nM,IC50 [2]: 11.9 nM
CC(=O)N[C@H]1Cc2ccc(cc2)OCCCC[C@@H](C(=O)N[C@@H](CCCNC(=N)N)C(=O)c2nc3ccccc3s2)NC(=O)[C@H](Cc2c[nH]c3ccccc23)NC1=O [VD4158],5.45,–,–,56.8 nM,IC50 [2]: 85.2 nM
"CC(=O)N[C@@H](CC(C)C)C(=O)N[C@@H](CC(C)C)C(=O)N[C@@H](CCCNC(=N)N)C(=O)c1nccs1 [ZFH6201, Ac-LLR-kt]",–,–,6.46,–,–
"CC(=O)N[C@@H](CCCCN)C(=O)N[C@@H](CCC(N)=O)C(=O)N[C@@H](CC(C)C)C(=O)N[C@@H](CCCNC(=N)N)C(=O)c1nc2ccccc2s1 [ZFH7006, Ac-KQLR-kbt]",–,–,7.11,–,–
"CC(=O)N[C@@H](Cc1c[nH]c2ccccc12)C(=O)N[C@@H](CC(C)C)C(=O)N[C@@H](Cc1ccccc1)C(=O)N[C@@H](CCCNC(=N)N)C(=O)c1nc2ccccc2s1 [ZFH7064, Ac-WLFR-kbt]",–,–,6.82,–,Calu-3 EC50 (nM) [1]: excellent potency
"CC(=O)N[C@@H](CO)C(=O)N[C@@H](CCCCN)C(=O)N[C@@H](CC(C)C)C(=O)N[C@@H](CCCNC(=N)N)C(=O)c1nc2ccc(C(=O)N[C@H](C(N)=O)C(C)C)cc2s1 [ZFH7116, Ac-SKLR kbt V-amide] (Ac-SKL[X6]V-NH2)",–,–,6.51,–,pIC50 (activated hepsin): 9.30
